Results from ChEMBL document CHEMBL2440045, “The synthesis and anticancer activity of analogs of the indole phytoalexins brassinin, 1-methoxyspirobrassinol methyl ether and cyclobrassinin” (Bioorg Med Chem, 2013).
pIC50: −log10 of the molar value.

Legend:
Assay type in all cases: functional, cell-based
Jurkat = experiment: Antiproliferative activity against human Jurkat cells assessed as cell viability after 72 hrs by MTT assay
MCF7 = experiment: Antiproliferative activity against human MCF7 cells assessed as cell viability after 72 hrs by MTT assay; conditions: MCF7, 72 h
HeLa = experiment: Antiproliferative activity against human HeLa cells assessed as cell viability after 72 hrs by MTT assay
A549 = experiment: Antiproliferative activity against human A549 cells assessed as cell viability after 72 hrs by MTT assay; conditions: A549, 72 h
MDA-MB-231 = experiment: Antiproliferative activity against human MDA-MB-231 cells assessed as cell viability after 72 hrs by MTT assay; conditions: MDA-MB-231, 72 h
CCRF-CEM = experiment: Antiproliferative activity against human CCRF-CEM cells assessed as cell viability after 72 hrs by MTT assay

Row | SMILES | pIC50 (Jurkat) | pIC50 (MCF7) | pIC50 (HeLa) | pIC50 (A549) | pIC50 (MDA-MB-231) | pIC50 (CCRF-CEM)
1 | CO[C@@H]1N(C(=O)OC(C)(C)C)c2ccccc2[C@@]12CN=C(Nc1ccc(C)cc1)S2 (racemic) | 5.05 | 4.50 | 4.64 | 4.52 | 4.45 | 4.72
2 | CO[C@H]1N(C(=O)OC(C)(C)C)c2ccccc2[C@@]12CN=C(Nc1ccc([N+](=O)[O-])cc1)S2 (racemic) | 4.69 | 4.48 | 4.50 | 4.48 | 4.43 | 4.74
3 | CO[C@H]1N(C(=O)OC(C)(C)C)c2ccccc2[C@@]12CN=C(Nc1ccc(C(F)(F)F)cc1)S2 (racemic) | 5.03 | 4.58 | 4.49 | 4.61 | 4.54 | 5.14
4 | CO[C@@H]1N(C(=O)OC(C)(C)C)c2ccccc2[C@@]12CN=C(Nc1ccc(C(F)(F)F)cc1)S2 (racemic) | 5.25 | 4.95 | 4.95 | 4.75 | 4.67 | 5.17
5 | CO[C@@H]1N(C(=O)OC(C)(C)C)c2ccccc2[C@@]12CN=C(Nc1cc(C(F)(F)F)cc(C(F)(F)F)c1)S2 (racemic) | 4.67 | 4.68 | 4.47 | 4.54 | 4.41 | 4.76
6 | CO[C@H]1N(C(=O)OC(C)(C)C)c2ccccc2[C@@]12CN=C(N(C)c1ccccc1)S2 (racemic) | 5.23 | 5.82 | 5.09 | – | 4.50 | 4.74
7 | CO[C@@H]1N(C(=O)OC(C)(C)C)c2ccccc2[C@@]12CN=C(N(C)c1ccccc1)S2 (racemic) | 4.59 | 4.55 | 4.49 | 4.54 | 4.56 | 4.58
8 | CNC1=NC[C@]2(S1)c1ccccc1N(C(=O)OC(C)(C)C)[C@@H]2OC (racemic) | 4.08 | < 4.00 | < 4.00 | < 4.00 | < 4.00 | 4.35
9 | CNC1=NC[C@]2(S1)c1ccccc1N(C(=O)OC(C)(C)C)[C@H]2OC (racemic) | 4.38 | < 4.00 | < 4.00 | < 4.00 | < 4.00 | 4.28
10 | CO[C@H]1N(C(=O)OC(C)(C)C)c2ccccc2[C@@]12CN=C(NC1CCCCC1)S2 (racemic) | 5.28 | 4.56 | 4.49 | 4.56 | 4.58 | 5.29
11 | CO[C@@H]1N(C(=O)OC(C)(C)C)c2ccccc2[C@@]12CN=C(NC1CCCCC1)S2 (racemic) | 4.57 | 4.43 | 4.44 | 4.42 | 4.38 | 4.54
12 | CO[C@H]1N(C(=O)OC(C)(C)C)c2ccccc2[C@@]12CN=C(N1CCCCC1)S2 (racemic) | 4.60 | 4.28 | 4.26 | 4.27 | 4.21 | 4.58
13 | CO[C@@H]1N(C(=O)OC(C)(C)C)c2ccccc2[C@@]12CN=C(N1CCCCC1)S2 (racemic) | 4.48 | 4.19 | 4.21 | 4.26 | 4.16 | 4.51
14 | CO[C@H]1N(C(=O)OC(C)(C)C)c2ccccc2[C@@]12CN=C(N1CCOCC1)S2 (racemic) | 4.50 | 4.15 | 4.26 | < 4.00 | 4.16 | 4.29
15 | CO[C@@H]1N(C(=O)OC(C)(C)C)c2ccccc2[C@@]12CN=C(N1CCOCC1)S2 (racemic) | 4.46 | 4.16 | 4.12 | < 4.00 | < 4.00 | 4.44
16 | CON1c2ccccc2C2(CN=C(SC)S2)C1O (racemic) | 4.00 | 4.00 | 4.00 | 4.00 | 4.00 | 4.00
17 | CSC1=NC[C@]2(S1)c1ccccc1N(C(=O)OC(C)(C)C)[C@@H]2O (racemic) | 4.47 | 4.00 | 4.11 | 4.00 | 4.08 | 4.51
18 | CSC1=NC[C@]2(S1)c1ccccc1N(C(=O)OC(C)(C)C)[C@H]2O (racemic) | 4.53 | 4.00 | 4.03 | 4.00 | 4.02 | 4.57
19 | CC(C)(C)OC(=O)N1c2ccccc2[C@@]2(CN=C(Nc3ccccc3)S2)[C@H]1O (racemic) | 4.32 | 4.56 | 4.14 | 4.13 | 4.19 | 4.48
20 | CN(C1=NC[C@]2(S1)c1ccccc1N(C(=O)OC(C)(C)C)[C@@H]2O)c1ccccc1 (racemic) | 5.28 | 5.57 | < 4.00 | < 4.00 | < 4.00 | 4.19
21 | CN(C1=NC[C@]2(S1)c1ccccc1N(C(=O)OC(C)(C)C)[C@H]2O)c1ccccc1 (racemic) | 4.67 | 4.52 | 4.65 | 4.54 | 4.49 | 4.64
22 | CO[C@@H]1N(OC)c2ccccc2[C@@]12CN=C(SC)S2 (racemic) | 4.36 | 4.19 | – | – | – | –
